Reference: patent US9375459B2, “Cyclic peptides with an anti-neoplasic and anti-angiogenic activity” (priority 2011, dated 2016)
“Also recorded” adds a separate entry of the source. Read-outs that look alike come from different tables or passages of the source. Where a SMILES comes first, the peptide text is derived from it. Bridges are numbered along the chain shown (N, C = ends).

How the values were obtained:
[1] = system: human colon cancer Ls174T cell line implanted in NIH athymic mice; experiment: Ls174T colon cancer tumor model in athymic mice; format: in vivo; conditions: FIG. 19B
Procedure: The Ls174T colon cancer tumor model in athymic mice was used to evaluate the potential effect of the linear Gly255-Ser274 segment (peptide N06P87), compared to the CIGB370r polypeptide, on human tumor models. Human tumor cells were administered by subcutaneous route, and the molecules of interest or the vehicle were administered by intratumor route (100 μL). After 13 days, when tumors were implanted and palpable, administration schedules started for the molecules of interest (FIG. 8A). The peptide N06P87 was administered in down-scaled doses: two administrations of 600 μM each every 48 h, followed by 4 administrations of 330 μM each every 48 h, and lastly 4 administrations of 90 μM each every 72 h. The CIGB370r peptide was administered weekly for 4 weeks.
The effects of the linear segment Gly255-Ser274 (peptide N06P87) and two other model cyclic peptides of the present invention were compared to the effect of the CIGB370r polypeptide in the Ls174T human colon cancer model in athymic NIH mice, with the dose and schedule shown in FIG. 19. After 13 days, once the tumors were implanted and palpable, biomolecules began to be administered (FIG. 19 A). The peptides were administered in down-scaled doses: 2 administrations of 600 μM every 48 h, followed by 4 administrations of 330 μM each every 48 h, and 4 final 90 μM administrations every 72 h. […]

[2] = system: TC-1 tumor; experiment: TC-1 subcutaneous tumor model in C57BL/6 mice; format: in vivo; conditions: 80 μM; for survival: intratumoral route
Procedure: Six-to-eight weeks-old, C57BL/6 female mice of 22 g of weight were supplied by the National Center for Laboratory Animal Production (CENPALAB, Havana, Cuba) and housed under pathogen-free conditions at the Bioterium of the Center for Genetic Engineering and Biotechnology (CIGB). Experiments were carried out in agreement with regulations for proper handling and care of laboratory animals. Tumor volume was measured on each case (estimated by the formula: volume=a^2×(b/2), where a is the width and b is the length of the tumor) and animal survival was evaluated.
Survival was compared between groups by the Logrank test. The statistic parameters were obtained with the aid of the GraphPad Prism 4.0 software (GraphPad Software, San Diego, Calif., USA).
C57BL/6 mice were injected in the right flank by subcutaneous route (s.c.) with 50 000 TC-1 cells. When tumors were detectable, mice were randomized into treatment groups to evaluate the treatment with the peptides subject of study, to evaluate them by different administration routes. Tumor-bearing animals received 6 administrations in alternate days, with 80 μM of the subject peptide, solely received the vehicle as control. Five mice were used for each group. Animals were housed under pathogen-free conditions, and procedures were conducted in agreement with good practices for laboratory animal handling and care.

[3] = system: human tumor cell lines (A549, A375, PC-3, U87)
[4] = system: primary fibroblasts
[5] = system: human tumor cells; experiment: Cytotoxic activity screening of peptide library on human tumor cell lines, SRB method; format: cell-based
Procedure: (§1) Negative control cells were cultured on a volume of vehicle equal to that of the experimental samples. An “x-y” curve (dose-response) was established with the percent of surviving cells, compared in respect to the negative control cells, and the following parameters were estimated: 50% growth inhibition (GI50); Total growth inhibition (TGI); and the lethal concentration 50 (LC50), that is the concentration causing the 50% of cell death (Boyd M R, Paull K D, and Rubinstein L R (1992) “Data display and analysis strategies for the NCI Disease Oriented In-Vitro Antitumor Drug Screen, in Cytotoxic Anticancer Drugs: Models and Concept for Drug Discovery and Development” (Baleriote F A, Corbett T H and Baker L H eds) pp 11-34, Kluwer Academia Publishers, Boston).
(§2) Were considered as cytotoxic peptides all those peptides being able of inhibiting 50% of the cellular proliferation, in a dose-dependent manner, and showing GI50 values below 100 μM, at least in one of the cell lines studied. The human tumor cell lines used were: HEp-2 (larynx carcinoma), A549 (lung epithelial adenocarcinoma), M14 (melanoma), Colo 205 (colon adenocarcinoma), Ls174T (colon adenocarcinoma), LnCAP (prostate carcinoma), PC-3 (prostate carcinoma) and H 125 (non-small cell lung adenocarcinoma). Represented are primary sequences for the designed peptides, the code used for its generation and their respective cytotoxic capacity on human tumor cells.

[6] = system: M14 (melanoma); experiment: SRB cytotoxicity on M14 melanoma cells; format: cell-based; conditions: M14 human melanoma cells
Procedure: as §1, §2
The inability of peptide N06P89 (cyclized by two cysteins located at both N- and C-termini) to inhibit cellular proliferation in M14 human melanoma tumor cells is shown in FIG. 7. […] At the same FIG. 7, it is also shown the need for blocking the C-terminus (for example, an amide group or other modification) to achieve the cytotoxic capacity expected for the peptide region of interest.

[7] = system: Colo 205 (colon adenocarcinoma); experiment: SRB cytotoxicity on Colo 205 cells; format: cell-based, human
Procedure: as §1
as §2, with “Represented are primary sequences for the designed peptides, the code used for its generation and their respective cytotoxic capacity on human tumor cells.” left out

[8] = system: HEp-2 (larynx carcinoma); experiment: SRB cytotoxicity on HEp-2 cells; format: cell-based, human
Procedure: as §1
as §2, with “Represented are primary sequences for the designed peptides, the code used for its generation and their respective cytotoxic capacity on human tumor cells.” left out

[9] = system: A549 (lung epithelial adenocarcinoma); experiment: SRB cytotoxicity on A549 cells; format: cell-based, human
Procedure: as §1
as §2, with “Represented are primary sequences for the designed peptides, the code used for its generation and their respective cytotoxic capacity on human tumor cells.” left out

[10] = system: Ls174T (colon adenocarcinoma); experiment: SRB cytotoxicity on Ls174T cells; format: cell-based, human
Procedure: as §1
as §2, with “Represented are primary sequences for the designed peptides, the code used for its generation and their respective cytotoxic capacity on human tumor cells.” left out

[11] = peptide combined with prodigiosin

CC(C)C[C@@H]1NC(=O)[C@H](Cc2ccccc2)NC(=O)[C@H](CC(=O)O)NC(=O)[C@H](CCCNC(=N)N)NC(=O)CNC(=O)[C@H]([C@@H](C)O)NC(=O)[C@H](CC(N)=O)NC(=O)[C@@H](N)CSSC[C@@H](C(N)=O)NC1=O [Peptide A08P25s-s, CNTGRDFLC] (H-CNTGRDFLC-NH2; disulfide 1-9)
T/C values related to the mean tumor volume [1]: 35%
survival [2]: intermediate survival block
effect on the cytotoxic activity of prodigiosin [3]: enhanced
GI50 values [3, 11]: nm range
decrease of the cytotoxic activity of prodigiosin on primary fibroblasts [4]: at least one order of magnitude

CC(C)C[C@@H]1NC(=O)[C@H](Cc2ccccc2)NC(=O)[C@H](CC(=O)O)NC(=O)[C@H](CCCNC(=N)N)NC(=O)CNC(=O)[C@H]([C@@H](C)O)NC(=O)[C@H](CC(N)=O)NC(=O)[C@@H](NC(=O)[C@H](CC(N)=O)NC(=O)[C@H](Cc2ccccc2)NC(=O)CNC(=O)[C@H](Cc2ccc(O)cc2)NC(=O)[C@@H](NC(=O)[C@@H](NC(=O)[C@H](CC(=O)O)NC(=O)CN)[C@@H](C)O)C(C)C)CSSC[C@@H](C(=O)N[C@H](C(=O)N[C@H](C(=O)N[C@@H](CO)C(N)=O)[C@@H](C)O)[C@@H](C)O)NC1=O [Peptide A08P28s-s] (H-GDTVYGFNCNTGRDFLCTTS-NH2; disulfide 9-17)
survival [2]: intermediate survival block
GI50 values [3, 11]: nm range
effect on the cytotoxic activity of prodigiosin [3, 11]: enhanced
decrease of the cytotoxic activity of prodigiosin on primary fibroblasts [4, 11]: at least one order of magnitude

CC[C@H](C)[C@H](NC(=O)[C@H](CC(N)=O)NC(=O)[C@@H](NC(=O)[C@H](CO)NC(=O)[C@H](CC(C)C)NC(=O)[C@H](CC(=O)O)NC(=O)[C@@H](NC(=O)[C@@H](NC(=O)[C@H](CC(N)=O)NC(=O)[C@H](CO)NC(=O)[C@H](CO)NC(=O)[C@H](C)NC(=O)[C@@H](N)CC(N)=O)C(C)C)[C@@H](C)O)C(C)C)C(=O)NCC(=O)NCC(=O)N[C@@H](Cc1c[nH]cn1)C(=O)N[C@@H](CCC(N)=O)C(=O)N[C@@H](C)C(=O)N1CCC[C@H]1C(=O)N[C@@H](CC(=O)O)C(N)=O [Peptide E02P04] (H-NASSNVTDLSVNIGGHQAPD-NH2)
Cytotoxic activity in vitro ([5]; SRB method, cytotoxic = dose-dependent 50% inhibition of proliferation, GI50 below 100 μM in at least one cell line): + (Symbol + indicates the presence of cytotoxicity)
cytotoxic activity / inhibition of cellular proliferation [6]: showed activity
cytotoxic activity / inhibition of cellular proliferation ([6]; listed as E07P04): showed cytotoxic activity

CC(C)[C@H](NC(=O)[C@@H](NC(=O)[C@H](CC(=O)O)NC(=O)CN)[C@@H](C)O)C(=O)N[C@H]1CSSC[C@@H](C(=O)N[C@@H](CO)C(=O)N[C@H](C(=O)N[C@H](C(=O)N[C@@H](CO)C(N)=O)[C@@H](C)O)[C@@H](C)O)NC(=O)[C@H](Cc2ccccc2)NC(=O)[C@H](CC(=O)O)NC(=O)[C@H](CCCNC(=N)N)NC(=O)CNC(=O)[C@H]([C@@H](C)O)NC(=O)[C@H](CC(N)=O)NC(=O)[C@H](CO)NC(=O)[C@H](CC(N)=O)NC(=O)[C@H](Cc2ccccc2)NC(=O)CNC1=O [Peptide J08P46s-s] (H-GDTVCGFNSNTGRDFCSTTS-NH2; disulfide 5-16)
survival [2]: intermediate survival block
GI50 values [3, 11]: nm range
effect on the cytotoxic activity of prodigiosin [3, 11]: enhanced
decrease of the cytotoxic activity of prodigiosin on primary fibroblasts [4, 11]: at least one order of magnitude

CC(C)C[C@@H]1NC(=O)[C@H](Cc2ccccc2)NC(=O)[C@H](CC(=O)O)NC(=O)[C@H](CCCNC(=N)N)NC(=O)CNC(=O)[C@H]([C@@H](C)O)NC(=O)[C@H](CC(N)=O)NC(=O)[C@H](CO)NC(=O)[C@H](CC(N)=O)NC(=O)[C@@H](NC(=O)CNC(=O)[C@H](Cc2ccc(O)cc2)NC(=O)[C@@H](NC(=O)[C@@H](NC(=O)[C@H](CC(=O)O)NC(=O)CN)[C@@H](C)O)C(C)C)CSSC[C@@H](C(N)=O)NC(=O)CNC(=O)[C@H]([C@@H](C)O)NC(=O)[C@H](CO)NC1=O [Peptide J08P48s-s] (H-GDTVYGCNSNTGRDFLSTGC-NH2; disulfide 7-20)
T/C values related to the mean tumor volume [1]: 35%
survival by intratumoral and intraperitoneal routes ([2]; i.t. or i.p., FIG. 17): reproduce the effects observed in this model for the CIGB370r polypeptide
survival [2]: highest survival block
GI50 values [3, 11]: nm range
effect on the cytotoxic activity of prodigiosin [3, 11]: enhanced
decrease of the cytotoxic activity of prodigiosin on primary fibroblasts [4, 11]: at least one order of magnitude

CC(C)C[C@H](NC(=O)[C@H](Cc1ccccc1)NC(=O)[C@H](CC(=O)O)NC(=O)[C@H](CCCNC(=N)N)NC(=O)CNC(=O)[C@@H](NC(=O)[C@H](CC(N)=O)NC(=O)[C@H](CO)NC(=O)[C@H](CC(N)=O)NC(=O)[C@H](Cc1ccccc1)NC(=O)CNC(=O)[C@H](Cc1ccc(O)cc1)NC(=O)[C@@H](NC(=O)[C@@H](NC(=O)[C@H](CC(=O)O)NC(=O)CN)[C@@H](C)O)C(C)C)[C@@H](C)O)C(=O)N[C@@H](CO)C(=O)N[C@H](C(=O)N[C@H](C(=O)N[C@@H](CO)C(N)=O)[C@@H](C)O)[C@@H](C)O [Peptide N06P87] (H-GDTVYGFNSNTGRDFLSTTS-NH2)
cytotoxic / biological activity in vitro on tumor cells ([5]; peptide library screening): active
change of cytotoxic activity by parenteral formulation buffers, pH and additives ([5]; tumor cells from diverse histological origins): no increased on its cytotoxic activity
GI50 [7]: < 100 µM
GI50 [8]: < 100 µM
GI50 [9]: < 100 µM
GI50 [10]: < 100 µM

CC(C)C[C@@H]1NC(=O)[C@H](Cc2ccccc2)NC(=O)[C@H](CC(=O)O)NC(=O)[C@H](CCCNC(=N)N)NC(=O)CNC(=O)[C@H]([C@@H](C)O)NC(=O)[C@H](CC(N)=O)NC(=O)[C@H](CO)NC(=O)[C@H](CC(N)=O)NC(=O)[C@H](Cc2ccccc2)NC(=O)CNC(=O)[C@H](Cc2ccc(O)cc2)NC(=O)[C@H](C(C)C)NC(=O)[C@H]([C@@H](C)O)NC(=O)[C@H](CC(=O)O)NC(=O)CNC(=O)[C@@H](N)CSSC[C@@H](C(N)=O)NC(=O)[C@H](CO)NC(=O)[C@H]([C@@H](C)O)NC(=O)[C@H]([C@@H](C)O)NC(=O)[C@H](CO)NC1=O [Peptide N06P89] (H-CGDTVYGFNSNTGRDFLSTTSC-NH2; disulfide 1-22)
cytotoxic activity / inhibition of cellular proliferation [6]: inability; also recorded: loss of peptide's biological activity
